Read-outs that look alike come from different tables or passages of the source.
Key:
[1] = Micro-dissolution comparative study of potential salts (pH transfer model); format: physicochemical; parameters: AUC pH 2-6.5 Mean / AUC pH 6-6.5 Mean: unit not given beside the values; conditions: for pH-effect Ratio: AUC pH 6-6.5 over AUC pH 2-6.5
[2] = Dog PK study, pH effect of free base vs. HCl salt; format: in vivo; conditions: for BA Mean / Cmax / Tmax / AUC(0-t): dog, capsule, 10 mg (1 mpk), famotidine treated (Famo); for Cmax / Tmax / AUC(0-t): in vivo, po, 1 mg/kg; for AUC(0-t): read-out: AUC0-24 h Mean
Description: In famotidine treated dogs, the mean bioavailability of the HCl salt is 60% higher than the free base.

[3] = Dog PK study, pH effect of free base vs. HCl salt; format: in vivo; conditions: capsule, 10 mg (1 mpk), Penta
[4] = Physical and chemical stability of Form B on storage at different temperature and humidity; format: physicochemical
Procedure: Samples of Form B of Compound (I) were stored at different conditions of temperature and humidity for 4 weeks. The physical stability, characterized by DSC, TGA, and PXRD, were measured at 2 and 4 weeks.

[5] = Moisture sorption isotherm; format: physicochemical
Procedure: Moisture sorption isotherms were collected in a TA Instrument VTI-SA+Vapor Sorption Analyzer using approximately 10 mg of sample. The sample was dried at 60° C. until the loss rate of 0.0005 wt %/min was obtained for 10 minutes. The sample was tested at 25° C. and 3 or 4, 5, 15, 25, 35, 45, 50, 65, 75, 85, and 95% RH. Equilibration at each RH was reached when the rate of 0.0003 wt %/min for 35 minutes was achieved or a maximum of 600 minutes.

[6] = Physical and chemical stability of Form B on storage at different temperature and humidity; format: physicochemical; remark: listed apart in the source

For `[2H]C([2H])([2H])NC(=O)c1nnc(NC(=O)C2CC2)cc1Nc1cccc(-c2ncn(C)n2)c1OC` [Compound (I), 6-(cyclopropanecarboxamido)-4-((2-methoxy-3-(1-methyl-1H-1,2,4-triazol-3-yl)phenyl)amino)-N-(methyl-d3)pyridazine-3-carboxamide], the “pH-effect Ratio” value [1] was 0.27, the “AUC pH 2-6.5 Mean” value [1] was 6094.11 and the “AUC pH 6-6.5 Mean” value [1] was 1640.60. For the same molecule, the “BA Mean” value [2] was 85.44%, the Cmax [2] was 62.8 ng/mL and the Tmax [2] was 3.5 h. For the same molecule, the AUC(0-t) [2] was 586 ng·h/mL, the “BA Mean” value [3] was 100.00% and the Cmax ([3]; in vivo, po, 1 mg/kg) was 122 ng/mL. For the same molecule, the Tmax ([3]; in vivo, po, 1 mg/kg) was 2.5 h and the AUC(0-t) ([3]; in vivo, po, 1 mg/kg, read-out: AUC0-24 h Mean) was 975 ng·h/mL.
For `Cl.[2H]C([2H])([2H])NC(=O)c1nnc(NC(=O)C2CC2)cc1Nc1cccc(-c2ncn(C)n2)c1OC` [Form B of Compound (I), 6-(cyclopropanecarboxamido)-4-((2-methoxy-3-(1-methyl-1H-1,2,4-triazol-3-yl)phenyl)amino)-N-(methyl-d3)pyridazine-3-carboxamide HCl salt], the “% Assay” value ([4]; 5° C. (control), 2 weeks) was 98.32%, the “% Assay” value ([4]; 25° C./60% RH (closed), 2 weeks) was 98.26% and the “% Assay” value ([4]; 40° C./75% RH (open), 4 weeks) was 98.37%. The “% Assay” value ([4]; 50° C., 4 weeks) was 98.40%, the “% Assay” value ([4]; HIL/UV, 4 weeks) was 98.44% and the Chemical stability ([4]; storage conditions of Table 3, up to 4 weeks) was “no measure change in chemical stability”. For the same molecule, the Hygroscopicity [5] was “non-hygroscopic”, the Moisture uptake ([5]; between 25 to 75% relative humidity at 25° C.) was “less than 0.5%” and the “pH-effect Ratio” value [1] was 0.61. For the same molecule, the “Mitigation of the pH effect” value ([1]; comparison of salts) was “mitigates the pH effect better than MSA and sulfate (SO4) salts”, the “AUC pH 2-6.5 Mean” value [1] was 12345.28 and the “AUC pH 6-6.5 Mean” value [1] was 7492.66. The “BA Mean” value [2] was 160.90%, the Cmax [2] was 180 ng/mL and the Tmax [2] was 2 h. The AUC(0-t) [2] was 1340 ng·h/mL, the “Mean bioavailability higher than the free base” value ([2]; famotidine treated dogs, 1 mpk) was 60% and the “% Assay” value ([6]; 5° C., 1 Month, corrected for water and total volatiles) was 100.3%. For the same molecule, the “% Assay” value ([6]; 5° C., 2 weeks) was 98.31%, the “% Assay” value ([6]; 5° C., 3 Months, corrected for water and total volatiles) was 100.9% and the “% Assay” value ([6]; 5° C., 4 weeks) was 98.40%. The “% Assay” value ([6]; 5° C., 6 Months, corrected for water and total volatiles) was 100.3%, the “% Assay” value ([6]; 5° C., 12 Months, corrected for water and total volatiles) was 100.2% and the “% Assay” value ([6]; 25° C./60% RH (closed), 1 Month, corrected for water and total volatiles) was 98.8%. For the same molecule, the “% Assay” value ([6]; 25° C./60% RH (closed), 3 Months, corrected for water and total volatiles) was 100.9%, the “% Assay” value ([6]; 25° C./60% RH (closed), 4 weeks) was 98.39% and the “% Assay” value ([6]; 25° C./60% RH (closed), 6 Months, corrected for water and total volatiles) was 99.4%. For the same molecule, the “% Assay” value ([6]; 25° C./60% RH (closed), 12 Months, corrected for water and total volatiles) was 99.9%, the “% Assay” value ([6]; 40° C./75% RH (open), 1 Month, corrected for water and total volatiles) was 99.8% and the “% Assay” value ([6]; 40° C./75% RH (open), 2 weeks) was 98.29%. The “% Assay” value ([6]; 40° C./75% RH (open), 3 Months, corrected for water and total volatiles) was 98.7%, the “% Assay” value ([6]; 40° C./75% RH (open), 6 Months, corrected for water and total volatiles) was 101.0% and the “% Assay” value ([6]; 40° C./75% RH (open), 12 Months, corrected for water and total volatiles) was 100.3%. For the same molecule, the “% Assay” value ([6]; 50° C., 2 weeks) was 98.32%, the “% Assay” value ([6]; HIL/UV, 2 weeks) was 98.44% and the “Physical stability (physical form)” value ([6]; by DSC, TGA and PXRD at 2 and 4 weeks, different temperature and humidity conditions) was “No change in the physical form was detected”. For the same molecule, the “Physical or chemical degradation” value ([6]; tested temperature and humidity conditions) was “no significant physical or chemical degradation” and the “% Assay” value ([6]; −20° C., 1 Month, corrected for water and total volatiles) was 99.9%.
In the case of `CS(=O)(=O)O.[2H]C([2H])([2H])NC(=O)c1nnc(NC(=O)C2CC2)cc1Nc1cccc(-c2ncn(C)n2)c1OC` [MSA salt], the “pH-effect Ratio” value [1] is reported as 0.45, the “AUC pH 2-6.5 Mean” value [1] is reported as 12045.08 and the “AUC pH 6-6.5 Mean” value [1] is reported as 5368.76.

From US12291517B2, “Crystalline form of 6-(cyclopropanecarboxamido)-4-((2-methoxy-3-(1-methyl-1H-1,2,4-triazol-3-yl)phenyl)amino)-n-(methyl-D3) pyridazine-3-carboxamide” (Bristol-Myers Squibb Company, priority 2018, dated 2025)
